{"source": "patent US11440914B2", "about": "“Tricyclic amine compounds as CDK2 inhibitors” (Incyte Corporation, priority 2019, dated 2022)", "key": {"[1]": {"system": "Rb phosphorylation at S780 in CCNE1-non-amplified cell lines (COV504 and OV56)", "test": "Western blot of Rb phosphorylation at S780 in CCNE1-non-amplified cell lines", "type": "cell-based, human", "details": "various doses, 1 or 15 hours", "protocol": "(§1) The effect of CDK4/6-inhibition on Rb phosphorylation at S780 in CCNE1-amplified versus CCNE1-non-amplified cell lines was evaluated. […] One or 15 hours after treatment, the cells were harvested and total protein was extracted and analyzed by western blot (FIG. 8).\n(§2) Whole cell extracts were prepared using RIPA buffer (Thermo Scientific, 89900) with a Halt Protease and Phosphatase Inhibitor Cocktail (Thermo Scientific, 78440). Protein concentration was quantified with a BCA Protein Assay Kit (Thermo Scientific, 23225) and […] of protein lysates were loaded for SDS-PAGE using precast gradient gels (Bio-Rad, Hercules, No. 456-1094). Samples were diluted in 5× Laemmli buffer (300 mM Tris-HCl pH 6.8, 10% SDS (w/v), 5% 2-mercaptoethanol, 25% glycerol (v/v), 0.1% bromophenol blue w/v) and boiled for 5 minutes. […] of proteins were separated by 8-15% SDS-PAGE and transferred onto polyvinylidene fluoride (PVDF) membranes. Unspecific binding sites on the PVDF membranes were blocked with 5% non-fat milk in TBST (20 mM Tris-HCl, pH 7.6, 137 mM NaCl, 1% Tween-20). […] Images were captured by Luminescence/Fluorescence Imaging System Odyssey CLx Imager (LI-COR)."}, "[2]": {"system": "Rb phosphorylated on serine 780 in CCNE1 amplified COV318 cells", "test": "CDK2 pRb (S780) HTRF cellular assay", "type": "cell-based", "details": "Homo sapiens, overnight treatment, read-out: IC50 in p-RB S780 HTRF cellular assay", "protocol": "CDK2 pRb ([…]) HTRF cellular assay enables the quantitative detection of Rb phosphorylated on […] in CCNE1 amplified COV318 cells. The assay comprised two antibodies: Europium cryptate labeled anti-Phospho-Rb […] antibody (donor) and d2 labeled anti-Rb antibody (acceptor). In brief, COV318 cells were seeded into the wells of 96-well plate at a density of 25,000 per well with 9-point, 3-fold serial diluted compounds and cultured overnight at 37 degree with 5% CO2. The final concentrations of compounds start from 3 μM. […] After 2 h of incubation at room temperature, HTRF signals were measured on the PHERAstar microplate reader (BMG Labtech), using 340 nm as excitation wavelength, a 620 nm filter for the Europium donor fluorescence, and a 665-nm filter for the acceptor fluorescence detection. HTRF signals were calculated as the HTRF ratio (ratio of fluorescence measured at 665 nm and 620 nm)×10000."}, "[3]": {"system": "CCNE1-non-amplified cell lines (COV504, OV56, Igrov1)", "test": "Cell cycle analysis by FACS in CCNE1-non-amplified cell lines", "type": "cell-based, human", "protocol": "(§3) The effect of CDK4/6-inhibition in CCNE1-amplified versus CCNE1-non-amplified cell lines was evaluated.\n(§4) A similar experiment was performed in a larger set of CCNE1-amplified cell lines (COV318 and OVCAR3) and CCNE1-non-amplified cell lines (COV504, OV56, and Igrov1) (FIG. 6).\n(§5) Bulk DNA was stained with DAPI. Compound-treated and DMSO treated control cells were acquired with CytoFlex (Beckman Coulter) and were analyzed using the FlowJo software. For cell cycle analysis of cells with siRNA knockdown, 72 hours after siRNA transfection, cells exposed to […] for 3 hours before detection of Click-iT Alexa Fluor® 647 azide kit."}, "[4]": {"system": "CCNE1-amplified cell lines (OVCAR3, COV318)", "test": "Cell cycle analysis by FACS in CCNE1-amplified cell lines", "type": "cell-based, human", "details": "for percentage of S phase cells: 100 nM, 16 hours", "protocol": "as §3, §4\nTo confirm the role of p16 in CDK2-sensitivity of CCNE-amplified cells, COV318 cells were treated with control or p16-specific siRNA.\nas §5"}, "[5]": {"system": "Rb phosphorylation at S780 in CCNE1-amplified cell lines (OVCAR3 and COV318)", "test": "Western blot of Rb phosphorylation at S780 in CCNE1-amplified cell lines", "type": "cell-based, human", "details": "various doses, 1 or 15 hours", "protocol": "as §1, §2"}, "[6]": {"molecular_target": "CDK2/Cyclin E1 (Homo sapiens (Human), UniProt P24941)", "test": "CDK2/Cyclin E1 HTRF enzyme activity assay", "type": "biochemical", "details": "1 mM ATP", "protocol": "CDK2/Cyclin E1 enzyme activity assays utilize full-length human CDK2 co-expressed as N-terminal GST-tagged protein with FLAG-Cyclin E1 in a baculovirus expression system (Carna Product Number 04-165). Assays are conducted in white 384-well polystyrene plates in a final reaction volume of 8 μL. CDK2/Cyclin E1 (0.25 nM) is incubated with compounds (40 nL serially diluted in DMSO) in the presence of ATP (50 μM or 1 mM) and 50 nM ULight™-labeled eIF4E-binding protein 1 (THR37/46) peptide (PerkinElmer) in assay buffer (containing 50 mM HEPES pH 7.5, 1 mM EGTA, 10 mM MgCl2, 2 mM DTT, 0.05 mg/ml BSA, and 0.01% Tween 20) for 60 minutes at room temperature. The reactions are stopped by the addition of EDTA and Europium-labeled anti-phospho-4E-BP1 antibody (PerkinElmer), for a final concentration of 15 mM and 1.5 nM, respectively. HTRF signals are read after 1 hour at room temperature on a PHERAstar FS plate reader (BMG Labtech). Data is analyzed with IDBS XLFit and GraphPad Prism 5.0 software using a three or four parameter dose response curve to determine IC50 for each compound."}}, "data": [{"compound": "CC(=O)c1c(C)c2cnc(Nc3ccc(N4CCNCC4)cn3)nc2n(C2CCCC2)c1=O", "note": "[palbociclib]", "values": [{"measurement": "Rb phosphorylation at S780", "setting": "[1]", "value": "blocked Rb phosphorylation"}, {"measurement": "IC50", "setting": "[2]", "value": "> 3000", "unit": "nM"}, {"measurement": "percentage of cells at the S phase as compared to DMSO", "setting": "[3]; COV504, OV56, Igrov1, 16 hours after treatment", "value": "decreased in CCNE1-non-amplified cell lines in a dose-dependent fashion"}, {"measurement": "proliferation (cell cycle analysis by FACS)", "setting": "[3]; COV504 cells, 16 hours, increasing concentrations", "value": "dose-dependent inhibition of the proliferation"}, {"measurement": "percentage of cells at the S phase as compared to DMSO", "setting": "[4]; COV318 and OVCAR3, 16 hours after treatment", "value": "not significantly different"}, {"measurement": "Rb phosphorylation at S780", "setting": "[5]", "value": "not in CCNE1-amplified cell lines"}]}, {"compound": "C[C@@]1(O)CCC[C@H]1n1c(=O)ccc2cnc(NC3CCN(S(C)(=O)=O)CC3)nc21", "note": "[Compound A, 8-((1R,2R)-2-hydroxy-2-methylcyclopentyl)-2-((1-(methylsulfonyl)piperidin-4-yl)amino)pyrido[2,3-d]pyrimidin-7(8H)-one]", "values": [{"measurement": "IC50", "setting": "[2]", "value": 37, "unit": "nM"}, {"measurement": "percentage of S phase cells", "setting": "[4]; COV318, control siRNA", "value": "significantly decreased"}, {"measurement": "percentage of S phase cells", "setting": "[4]; COV318, p16 knocked down by siRNA, vs DMSO", "value": "not significantly decreased"}]}, {"compound": "Cc1nc2c(n1C)-c1nc(NC3CCN(S(=O)(=O)C4CC4)CC3)ncc1CC2", "note": "[Example 2, N-(1-(Cyclopropylsulfonyl)piperidin-4-yl)-1,2-dimethyl-4,5-dihydro-1H-imidazo[4,5-h]quinazolin-8-amine]", "values": [{"measurement": "IC50", "setting": "[6]", "value": "≤ 50", "unit": "nM"}]}, {"compound": "CS(=O)(=O)N1CCC(Nc2ncc3c(n2)-c2c(nc(-c4ccccc4)n2C2CC2)CC3)CC1", "note": "[Example 22, 1-Cyclopropyl-N-(1-(methylsulfonyl)piperidin-4-yl)-2-phenyl-4,5-dihydro-1H-imidazo[4,5-h]quinazolin-8-amine]", "values": [{"measurement": "IC50", "setting": "[6]", "value": "≤ 50", "unit": "nM"}]}, {"compound": "CS(=O)(=O)N1CCC(Nc2ncc3c(n2)-c2c(nc(-c4ccccc4F)n2C2CC2)CC3)CC1", "note": "[Example 23, 1-Cyclopropyl-2-(2-fluorophenyl)-N-(1-(methylsulfonyl)piperidin-4-yl)-4,5-dihydro-1H-imidazo[4,5-h]quinazolin-8-amine]", "values": [{"measurement": "IC50", "setting": "[6]", "value": "≤ 50", "unit": "nM"}]}]}
